From patent US20260250412A1, “COMBINATION OF ANTIBODY-DRUG CONJUGATE AND ANTI-PD-1 ANTIBODY, AND USE THEREOF” (GENEQUANTUM HEALTHCARE (SUZHOU) CO., LTD., priority 2023, published 2026)
Values joined by “and” are separate entries in the source; they are usually repeats but may differ in a detail not shown here. Equal entries are not always repeated.

Columns and labels:
[1] = system: BxPC-3 mouse xenograft tumor; assay: In vivo efficacy, BxPC-3 mouse xenograft tumor; design: species or system BALB/c nude mice; settings: for T/C (%) / TGI (%) / Tumor volume (mm^3) Day 0 / tumor growth inhibition (in words): 3 mg/kg; for Tumor volume (mm^3) Day 0: baseline at grouping
Protocol: I. The logarithmic growth phase BxPC-3 were collected and the cell density was adjusted to 10×10^6 cells/mL with Matrigel buffer (PBS:Matrigel=1:1). 0.2 mL of the prepared BxPC-3 cell suspension was subcutaneously injected into the right scapula of SPF female BALB/c nude mice aged 6-8 weeks.
(§1) II. The tumor diameter was measured with a vernier caliper and the tumor volume was calculated according to the formula V=0.5a×b^2 (where a is the longest diameter of the tumor and b is the shortest diameter of the tumor). […] Animals in each group were administered by tail vein injection, and the control group was given an equal volume of vehicle. […] T/C and TGI values were calculated using tumor volume. The calculation formula is as follows: T/C %=TRTV/CRTV×100% (TRTV: RTV of the treatment group; CRTV: RTV of the vehicle control group). The relative tumor volume (RTV) was calculated based on the results of tumor measurement, and the calculation formula was RTV=Vt/V0, where V0 was the average tumor volume measured at the time of grouping (i.e., D0), Vt was the average tumor volume at one measurement, and TRTV and CRTV took the same day of data.
6 days after cell inoculation, when the average tumor volume was about 159 mm^3, animals were randomly divided into vehicle control group, ADC-5 3 mg/kg group, ADC-6 3 mg/kg group, and DS1062a 3 mg/kg group, with 6 animals in each group.

[2] = system: MC38-hTROP2 colon carcinoma; assay: In vivo efficacy, MC38-hTROP2 colon carcinoma syngeneic CDX model; design: species or system C57BL/6J mice; settings: Table 22, monotherapy 3 mg/kg
Protocol: Objective: To evaluate the in vivo anti-tumor efficacy of the combination of ADC drug ADC2 with Anti-mPD-1 in mice bearing colon carcinoma Trop2-high CDX model.
I. MC38-hTROP2 cells (Biocytogen) in exponential growth stage were collected and counted for tumor inoculation. 0.5×10^6 cells in 0.1 mL of PBS were used to subcutaneously inject into the right flank of SPF female C57BL/6J mice aged 6-8 weeks.
II. 6 days after inoculation, the tumor diameter was measured with a caliper and the tumor volume was calculated according to the formula V=0.5 a×b^2 (wherein a is the long diameter of the tumor and b is the short diameter of the tumor). When the mean tumor volume was about 100-300 mm^3, the mice were randomized into vehicle group, ADC2 3 mg/kg group, DS1062a 3 mg/kg group, Anti-mPD-1 (Bio X cell, 825822J1) 1 mg/kg group, ADC2+Anti-mPD-1 combination group and DS1062a+Anti-mPD-1 combination group. Each group includes 6 mice. The day of first administration is defined as day 0. Mice in the vehicle group were given the solvent of ADC2 and the solvent of Anti-mPD-1 with the same frequency and administration route. The tumor volume of mice in each group was measured twice a week.

[3] = system: human breast cancer BR-05-0028 model; assay: In vivo efficacy, human breast cancer BR-05-0028 mouse xenograft tumor; design: species or system BALB/c nude mice
Protocol: as §1
The human breast cancer BR-05-0028 model (IHC 3±) was derived from tumor samples resected in clinical surgery. The tumor samples were inoculated into nude mice at the P0 generation, and the tumor tissue used in this example was the P5 generation. Tumor tissue with a volume of about 30 mm^3 was subcutaneously inoculated into the right back dorsum of SPF female BALB/c nude mice aged 6-8 weeks.

[4] = system: NCI-N87 mouse xenograft tumor; assay: In vivo efficacy, NCI-N87 mouse xenograft tumor; design: species or system BALB/c nude mice; settings: 3 mg/kg; for Tumor volume (mm^3) Day 0: baseline at grouping
[5] = system: MDA-MB-468 mouse xenograft tumor; assay: In vivo efficacy, MDA-MB-468 mouse xenograft tumor; design: species or system BALB/c Nude mice; settings: 4.5 mg/kg, intravenously
Protocol: The MDA-MB-468 tumor cells (ATCC, HTB-132) were maintained in vitro as a monolayer culture in L-15 medium supplemented with 10% fetal bovine serum and 1% Antibiotic-Antimycotic at 37° C. in an atmosphere of 0% CO2 in air. The cells growing in an exponential growth phase will be harvested and counted for tumor inoculation. For in vivo anti-tumor efficacy study, 10×10^6 MDA-MB-468 human breast cancer cells (Trop2 positive) in 0.2 mL of PBS with Matrigel (1:1) were inoculated subcutaneously in the right flank in BALB/c Nude mice. […] The tumor volume was measured twice weekly with a caliper. T/C and TGI values were calculated using tumor volume.

[6] = system: Trop2 positive cancer cells BxPC-3; assay: Cytotoxicity assay, CellTiter-Glo, 168 h, BxPC-3; format: cell-based, human
Protocol: In brief, 3000 to 5000 cells were plated in 96-well plates, and cells were able to attach overnight. Cells were treated with indicated drugs with various concentrations for 168 h. Cell viabilities were examined by CellTiter-Glo® Luminescent Cell Viability Assay, and percentage of cell viability was calculated.

[7] = system: human pharyngeal squamous cells carcinoma FaDu; assay: Cell proliferation, CellTiter Glo, 96 h, FaDu; format: cell-based
Protocol: A positive control group was set: 100 μL Puromycin at a concentration of 10 μg/mL was added to each well. […] After the administration was completed, the cells were moved to the incubator and incubated for 96 h. The 96-well plate was removed from the 37° C. cell incubator and equilibrated to room temperature for 30 minutes. After the medium was discarded, 100 μL of DMEM and 50 μL of CellTiter Glo reagent were added to each well, and the cells were shaken in the dark at 200 rpm for 15 minutes, and the luminescent signal reflecting cell viability was detected by a microplate reader.

[8] = Table 15, single dose, 5 mg/kg, Day 21

Substance: DS1062a
- Tumor volume (mm^3) Day 35 ([1]; Table 13, 3 mg/kg, tail vein injection): 847 mm^3 and 847 ± 104 mm^3
- T/C (%) ([1]; Table 13, Day 35): 64.05%
- TGI (%) ([1]; Table 13, Day 35): 40.54%
- Tumor volume (mm^3) Day 0 ([1]; Table 13, tail vein injection): 151 ± 12 mm^3
- Tumor volume (mm^3) Day 28 ([1]; Table 16, 3 mg/kg): 540 mm^3 and 540 ± 74 mm^3
- T/C (%) ([1]; Table 16, Day 28): 58.49%
- TGI (%) ([1]; Table 16, Day 28): 48.52%
- Tumor volume (mm^3) Day 0 ([1]; Table 16): 151 ± 12 mm^3
- Tumor volume (mm^3) Day 42 ([1]; Table 19, 3 mg/kg): 302 mm^3 and 302 ± 73 mm^3
- T/C (%) ([1]; Table 19, Day 42): 27.69%
- TGI (%) ([1]; Table 19, Day 42): 84.60%
- Tumor volume (mm^3) Day 0 ([1]; Table 19): 159 ± 11 mm^3
- tumor growth inhibition (in words) ([1]; effect example 3.1.1, compared with the control group): could significantly inhibit tumor growth
- tumor growth inhibition (in words) ([1]; effect example 3.3.1, after 42 days): could significantly inhibit tumor growth
- TGI (%) ([2]; day 28): 12.8%
- Tumor volume (mm^3) ([2]; end day (day 28), mean): 1415 mm^3
- Tumor volume (mm^3) Day 21 ([3]; Table 15, single dose, 5 mg/kg): 8 ± 1 mm^3
- T/C (%) [3, 8]: 0.48%
- TGI (%) [3, 8]: 111.60%
- Tumor volume (mm^3) Day 0 ([3]; Table 15, single dose, 5 mg/kg, baseline at grouping): 171 ± 23 mm^3
- tumor growth inhibition (in words) ([3]; effect example 3.1.3, 5 mg/kg (ADC-1 also 10 mg/kg), after 21 days): able to significantly inhibit tumor growth
- Tumor volume (mm^3) Day 32 ([4]; Table 14, single dose): 658 mm^3 and 658 ± 43 mm^3
- T/C (%) ([4]; Table 14, single dose, Day 32): 49.98%
- TGI (%) ([4]; Table 14, single dose, Day 32): 60.23%
- Tumor volume (mm^3) Day 0 ([4]; Table 14, single dose): 228 ± 20 mm^3
- Tumor volume (mm^3) Day 28 ([4]; Table 17): 255 mm^3 and 255 ± 35 mm^3
- T/C (%) ([4]; Table 17, Day 28): 40.30%
- TGI (%) ([4]; Table 17, Day 28): 84.96%
- Tumor volume (mm^3) Day 0 ([4]; Table 17): 188 ± 11 mm^3
- Tumor volume (mm^3) Day 42 ([4]; Table 20): 437 mm^3 and 437 ± 89 mm^3
- T/C (%) ([4]; Table 20, Day 42): 35.67%
- TGI (%) ([4]; Table 20, Day 42): 76.58%
- Tumor volume (mm^3) Day 0 ([4]; Table 20): 196 ± 14 mm^3
- tumor growth inhibition (in words) ([4]; effect example 3.1.2, after 32 days): able to significantly inhibit tumor growth
- tumor growth inhibition (in words) ([4]; effect example 3.2.2, after 28 days): can significantly inhibit NCI-N87 tumor growth
- tumor growth inhibition (in words) ([4]; effect example 3.3.2, after 42 days): could significantly inhibit tumor growth
- Tumor volume (mm^3) on day 35 [5]: 9 ± 9 mm^3
- T/C (%) ([5]; day 35): 1.35%
- TGI (%) ([5]; day 35): 136.06%
- IC50 [6]: 0.692 nM
- inhibition of proliferation (in words) [7]: could inhibit the proliferation of FaDu cells
- IC50 ([7]; Table 7): 0.551 nM
